According to US10501516B2, “Peptide compound” (TAKEDA PHARMACEUTICAL COMPANY LIMITED, priority 2016, dated 2019):
Square brackets hold non-standard residues; d marks the D form. Side chains are listed from the residue outwards. Peptide text beside a SMILES is read from it. * marks the point of attachment. NMeY = CN[C@@H](Cc1ccc(O)cc1)C(=O)O; Palmitoyl = CCCCCCCCCCCCCCCC(=O)*; αMeF = C[C@](N)(Cc1ccccc1)C(=O)O; Iva = CC[C@](C)(N)C(=O)O; Aib = CC(C)(N)C(=O)O

How the values were obtained:
male C57BL/6J mouse = test: Evaluation of feeding suppressive action in mice; type: in vivo; settings: 30 nmol/kg s.c. once a day for 3 days; 3-days cumulative food consumption vs solvent control
Summary of the method: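 Male C57BL/6J mice, 8-9 weeks, ad libitum fed, given compound (30 or 100 nmol/2 mL in 10% DMSO saline) s.c. at 2 mL/kg once daily for 3 days. Cumulative 3-day food consumption measured by weighing; suppression rate (%) calculated relative to vehicle controls.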

Male ob/ob mice = test: Repeated dosing study in ob/ob mice; type: in vivo, mouse; settings: for ALT / AST / TC / TG: plasma, mean ± SD
Method: Male ob/ob mice (9 weeks old) were divided into the groups based on the data of body weight, food intake, and plasma parameters. Vehicle or P41 was subcutaneously administered once a day for 4 weeks. Body weight and food intake were monitored during the study. Compounds were dissolved in 10% DMSO/saline. After the study, blood was collected and plasma parameters were measured. At day 29, the animals were sacrificed.
Plasma glucose, triglyceride (TG), total cholesterol (TC), aspartate aminotransferase (AST), and alanine aminotransferase (ALT) were analyzed by Autoanalyzer 7180 (Hitachi High-Technologies Corporation, Japan). Blood glycated hemoglobin (GHb) was measured with the automated GHb analyzers (HLC-723G8, Tosoh, Tokyo, Japan). Liver triglyceride content was measured as follows: a piece of tissue was homogenized in saline and lipid was extracted by the addition of hexane:isopropanol (3:2) solution. The lipid phase was collected, dried and then dissolved in isopropanol. The concentration of triglyceride was measured by Triglyceride E-test (Wako Pure Chemical Industries, Ltd, Japan) and triglyceride content per g liver was calculated. Plasma insulin was measured with ELISA Assay kit (Shibayagi Co. Ltd., Japan).

Male KKA^y mice = test: Repeated administration in KKA^y mice; type: in vivo, mouse; settings: for ALT / AST / TC / TG: plasma, mean ± SD
Method: Male KKA^y mice (10 weeks old) were divided into the groups based on the data of body weight, food intake, glycated hemoglobin (GHb), and plasma parameters. P41 was subcutaneously administered once a day for 4 weeks. Compounds were dissolved in 10% DMSO/saline. Body weight and food intake were monitored during the study. After the study, blood was collected and GHb and plasma parameters were measured. The animals were sacrificed, and the liver and the adipose tissues were dissected and weighed. Lipid was extracted from a piece of liver tissue and liver triglyceride (TG) content was measured.
Plasma glucose and TG were measured by Autoanalyzer 7180 (Hitachi High-Technologies Corporation, Japan). Blood GHb was measured with the automated GHb analyzers (HLC-723G8, Tosoh, Tokyo, Japan). Plasma insulin was measured with ELISA Assay kit (Shibayagi Co. Ltd., Japan). Liver TG content was measured as follows: a piece of tissue was homogenized in saline and lipid was extracted by the addition of hexane:isopropanol (3:2) solution. The lipid phase was collected, dried and then dissolved in isopropanol. The concentration of TG was measured by Triglyceride E-test (Wako Pure Chemical Industries) and TG content per g liver was calculated.

Male C57BL/6J mice = test: Conditioned taste aversion (CTA) test; type: in vivo, mouse; settings: 3 nmol/kg s.c.
Method: Male C57BL/6J (9 weeks old) mice were habituated to time-restricted bottled water supply (2-3 hours/day) and subcutaneous injection of saline for 1 week. Mice were divided into the groups based on the data of body weight and water intake. CTA test was performed according to the following protocol. On day 1 for the first conditioning, mice were given 0.1% sodium saccharin solution to drink for 3 hours. Ten-minutes after supplying the saccharin solution, vehicles, liraglutides and P41 were administered subcutaneously. […] On day 2, mice were given tap water for 3 hours and subcutaneous injection of saline after water supply. On day 3, the second conditioning was conducted as the same procedure used on day 1. On day 4, mice were given tap water for 3 hours without subcutaneous injection. On day 5, both tap water and saccharin solution were supplied to mice for 3 hours without subcutaneous injection and the intake of each fluid was measured. Saccharin preference ratio (%) was calculated according to the following equation: {(amount of saccharin intake)/(amount of saccharin intake+amount of water intake)}×100.

cynomolgus monkeys = test: Food intake and emesis study in cynomolgus monkeys; type: in vivo, cynomolgus monkey
Method: One male and one female cynomolgus monkeys (age: 4 years old, body weight: 3.9 kg in male, 2.7 kg in female) were used. The monkeys were housed in individual cages with a 12 hr:12 hr light-dark schedule at 22-27° C., and given 100 g of pellet diet (Oriental Yeast Co. Ltd) once daily. The diet was supplied after completion of the clinical observation at 8 hour post dose on the days of dosing. On other days during the experimental period, the diet was supplied each day after the completion of examinations and the remaining diet was withdrawn on the following morning. P41 was dissolved in 0.5 w/v % mannitol solution. The compound at 0.05 mg/kg was subcutaneously administered at day 1 and then at 0.15 mg/kg at day 4. Body weight was measured once during the pre-dosing period and on day 1, 4, 8, 11 and 15. Food intake was measured every day during the experimental period.

[1] = 10, 30 and 100 nmol/kg s.c. once a day for 4 weeks
[2] = 10 nmol/kg s.c. once a day for 4 weeks
[3] = 30 nmol/kg s.c. once a day for 4 weeks
[4] = 100 nmol/kg s.c. once a day for 4 weeks

CCCCCCCCCCCCCCCC(=O)NCC(=O)NCC(=O)NCC(=O)NCC(=O)NCCCC[C@H](NC(=O)[C@H](CC(=O)O)NC(=O)[C@H](CO)NC(=O)[C@@H](NC(=O)[C@](C)(Cc1ccccc1)NC(=O)[C@@H](NC(=O)CNC(=O)[C@H](CCC(=O)O)NC(=O)C(C)(C)NC(=O)[C@H](Cc1ccc(O)cc1)NC)[C@@H](C)O)[C@@H](C)O)C(=O)N[C@@H](CO)C(=O)N[C@H](C(=O)NC(C)(C)C(=O)N[C@@H](CC(C)C)C(=O)N[C@@H](CCC(=O)O)C(=O)N[C@@H](CCCCN)C(=O)N[C@@H](CCC(N)=O)C(=O)N[C@@H](CCCNC(=N)N)C(=O)N[C@@H](CCC(N)=O)C(=O)N[C@@](C)(CC)C(=O)N[C@@H](CCC(=O)O)C(=O)N[C@@H](Cc1ccccc1)C(=O)N[C@H](C(=O)N[C@@H](CCCNC(=N)N)C(=O)N[C@@H](Cc1c[nH]cn1)C(=O)N[C@@H](CC(C)C)C(=O)N[C@@H](CC(C)C)C(=O)N[C@@H](CC(N)=O)C(=O)N[C@@H](CCCCN)C(=O)NC(C)(C)C(=O)N[C@H](C(=O)N[C@@H](CCCNC(=N)N)C(=O)N[C@@H](CCC(N)=O)C(=O)N[C@@H](CCCNC(=N)N)C(=O)N[C@@H](Cc1ccc(O)cc1)C(N)=O)[C@@H](C)O)C(C)C)[C@@H](C)CC [Example 41] (H-[NMeY][Aib]EGT[αMeF]TSDK([Gly-Gly-Gly-Gly-Palmitoyl])SI[Aib]LEKQRQ[Iva]EFVRHLLNK[Aib]TRQRY-NH2)
Rate of feeding suppression (%) (male C57BL/6J mouse): −52.1%
GHb (Male ob/ob mice; [1]): significant decrease
body weight and cumulative food intake (Male ob/ob mice; [1]): dose-dependent body weight and cumulative food intake reduction
plasma glucose levels (Male ob/ob mice; [1]): significant decrease
plasma insulin levels (Male ob/ob mice; [1]): Dose-dependent decrease
liver and mesenteric, epididymal, and inguinal adipose tissue weight, and liver TG content (Male ob/ob mice; 10, 30 and 100 nmol/kg s.c. once a day for 4 weeks, dose-dependent): decreased
ALT (Male ob/ob mice; [2]): 50.6 ± 23.8 U/L
AST (Male ob/ob mice; [2]): 82.3 ± 25.0 U/L
TC (Male ob/ob mice; [2]): 137.0 ± 12.7 mg/dL
TG (Male ob/ob mice; [2]): 52.4 ± 13.0 mg/dL
ALT (Male ob/ob mice; [3]): 38.3 ± 9.3 U/L
AST (Male ob/ob mice; [3]): 83.5 ± 21.5 U/L
TG (Male ob/ob mice; [3]): 51.6 ± 14.2 mg/dL
ALT (Male ob/ob mice; [4]): 41.6 ± 10.1 U/L
AST (Male ob/ob mice; [4]): 77.7 ± 13.1 U/L
TC (Male ob/ob mice; [4]): 136.8 ± 6.1 mg/dL
TG (Male ob/ob mice; [4]): 46.9 ± 12.9 mg/dL
decrease in body weight compared with vehicle group (Male KKA^y mice; [2]): 4.2%
decrease in body weight compared with vehicle group (Male KKA^y mice; [3]): 9.8%
decrease in body weight compared with vehicle group (Male KKA^y mice; [4]): 30.1%
GHb, PG and plasma insulin levels (Male KKA^y mice; [1]): dose-dependent and significant decrease
liver tissue weight (Male KKA^y mice; [1]): Comparable reduction
ALT (Male KKA^y mice; [2]): 31.3 ± 9.7 U/L
AST (Male KKA^y mice; [2]): 53.4 ± 11.9 U/L
TC (Male KKA^y mice; [2]): 139.3 ± 19.0 mg/dL
TG (Male KKA^y mice; [2]): 357.1 ± 76.9 mg/dL
ALT (Male KKA^y mice; [3]): 24.9 ± 2.1 U/L
AST (Male KKA^y mice; [3]): 48.9 ± 8.6 U/L
TC (Male KKA^y mice; [3]): 155.9 ± 20.1 mg/dL
TG (Male KKA^y mice; [3]): 210.1 ± 53.3 mg/dL
ALT (Male KKA^y mice; [4]): 21.7 ± 7.6 U/L
AST (Male KKA^y mice; [4]): 52.6 ± 7.3 U/L
TC (Male KKA^y mice; [4]): 131.4 ± 14.0 mg/dL
TG (Male KKA^y mice; [4]): 138.1 ± 54.4 mg/dL
induction of conditioned taste aversion (emetic effects) (Male C57BL/6J mice): did not induce CTA
Saccharin preference ratio (%) (Male C57BL/6J mice; two conditionings, mean ± SD): 76.8 ± 9.5%
food consumption (cynomolgus monkeys; 0.05 and 0.15 mg/kg (ca. 10 and 30 nmol/kg) s.c., one male and one female): almost completely abolished food consumption
duration of inhibitory effect of food consumption (cynomolgus monkeys; 0.05 and 0.15 mg/kg s.c.): ≥ 2 days
vomiting (cynomolgus monkeys; 0.05 and 0.15 mg/kg s.c., throughout the experimental period): did not induce vomiting
